Test results published in patent publication US11655243B2, “Pyridine and pyrazine derivatives as preferential cannabinoid 2 agonists” (HOFFMANN-LA ROCHE INC., priority 2018, dated 2023).

What follows are compounds tested against human CNR2 receptors (CB2 receptor) (Homo sapiens (Human), UniProt P34972) (assay: Radioligand binding assay, human CB2 (CNR2)). Conditions: not given.
Method: Radioligand Binding Assay
The affinity of the compounds of the invention for cannabinoid CB1 receptors was determined using recommended amounts of membrane preparations (PerkinElmer) of human embryonic kidney (HEK) cells expressing the human CNR1 or CNR2 receptors in conjunction with 1.5 or 2.6 nM [3H]-CP-55,940 (Perkin Elmer) as radioligand, respectively. Binding was performed in binding buffer (50 mM Tris, 5 mM MgCl2, 2.5 mM EDTA, and 0.5% (wt/vol) fatty acid free BSA, pH 7.4 for CB1 receptor and 50 mM Tris, 5 mM MgCl2, 2.5 mM EGTA, and 0.1% (wt/vol) fatty acid free BSA, pH 7.4 for CB2 receptor) in a total volume of 0.2 ml for 1 h at 30° C. shaking. The reaction was terminated by rapid filtration through microfiltration plates coated with 0.5% polyethylenimine (UniFilter GFB filter plate; Packard). Bound radioactivity was analyzed for Ki using nonlinear regression analysis (Activity Base, ID Business Solution, Limited), with the Kd values for [3H]CP55,940 determined from saturation experiments. The compounds of formula (I) show an excellent affinity for the CB2 receptor.
The compounds according to formula (I) have an activity in the above assay (Ki) between 0.5 nM and 10 μM. Particular compounds of formula (I) have an activity in the above assay (Ki) between 0.5 nM and 3 μM. Other particular compounds of formula (I) have an activity in the above assay (Ki) between 0.5 nM and 100 nM.

Chain of human CNR2 receptors (CB2 receptor) (P34972 whole entry): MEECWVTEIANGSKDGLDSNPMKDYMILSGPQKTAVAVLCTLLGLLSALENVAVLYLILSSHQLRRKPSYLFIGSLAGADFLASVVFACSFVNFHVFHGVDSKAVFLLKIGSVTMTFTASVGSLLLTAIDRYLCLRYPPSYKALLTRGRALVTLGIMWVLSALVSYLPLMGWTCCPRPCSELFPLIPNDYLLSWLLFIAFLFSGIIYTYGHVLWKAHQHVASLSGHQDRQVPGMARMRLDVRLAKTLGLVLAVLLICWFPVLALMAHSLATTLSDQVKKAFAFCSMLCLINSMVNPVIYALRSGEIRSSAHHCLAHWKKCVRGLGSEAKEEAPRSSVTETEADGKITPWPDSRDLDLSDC

Row | SMILES | Ki [nM]
1 | CCC(CC)(NC(=O)c1ccc(N2CC(O)C2)c(OC[C@H]2C[C@@H]2COCc2ccccc2)n1)C(=O)OCCCF (racemic) [Example 22, (Rac)-trans-3-Fluoropropyl 2-[[6-[[-2-(benzyloxymethyl)cyclopropyl]methoxy]-5-(3-hydroxyazetidin-1-yl)pyridine-2-carbonyl]amino]-2-ethyl-butanoate] | 755
2 | CCC(CC)(NC(=O)c1ccc(N2CC(OC)C2)c(OC[C@H]2C[C@@H]2CO)n1)C(=O)OCF (stereo in doubt) [Example 12, (+)-trans-Fluoromethyl 2-ethyl-2-{[6-{[-2-(hydroxymethyl)cyclopropyl]methoxy}-5-(3-methoxyazetidin-1-yl)pyridine-2-carbonyl]amino}butanoate] | 0.4

Same assay, conditions: membranes of HEK cells expressing human CNR2, 2.6 nM [3H]-CP-55,940 radioligand; read-out: Binding assay human CB2 Ki

Row | SMILES | Ki [nM]
3 | CCC(CC)(NC(=O)c1ccc(N2CC(OC)C2)c(OC[C@H]2C[C@@H]2CO)n1)C(=O)N[C@H](CO)CC(C)C [Example 26, N-[1-Ethyl-1-[[(1S)-1-(hydroxymethyl)-3-methyl-butyl]carbamoyl]propyl]-6-[[(1S,2S)-2-(hydroxymethyl)cyclopropyl]methoxy]-5-(3-methoxyazetidin-1-yl)pyridine-2-carboxamide] | 130
4 | CCC(CC)(NC(=O)c1ccc(N2CC(OC)C2)c(OC[C@H]2C[C@@H]2CO)n1)C(=O)OCCCOS(=O)(=O)c1ccc(C)cc1 [Example 23, 3-(p-Tolylsulfonyloxy)propyl 2-ethyl-2-[[6-[[(1S,2S)-2-(hydroxymethyl)cyclopropyl]methoxy]-5-(3-methoxyazetidin-1-yl)pyridine-2-carbonyl]amino]butanoate] | 21.6
5 | CCC(CC)(NC(=O)c1ccc(N2CCCC2)c(OCC2(CO)COC2)n1)C(=O)OCCCF [Example 35, 3-Fluoropropyl 2-ethyl-2-(6-((3-(hydroxymethyl)oxetan-3-yl)methoxy)-5-(pyrrolidin-1-yl)picolinamido)butanoate] | 1390
6 | C=CC(C=C)(NC(=O)c1ccc(N2CC(OC)C2)c(OC[C@H]2C[C@@H]2CO)n1)C(=O)OCCCF [Example 20, 3-Fluoropropyl 2-[6-[[(1S,2S)-2-(hydroxymethyl)cyclopropyl]methoxy]-5-(3-methoxyazetidin-1-yl)pyridine-2-carbonylamino]-2-vinyl-but-3-enoate] | 525
7 | CCC(CC)(NC(=O)c1ccc(N2CC(F)C2)c(OC[C@H]2C[C@@H]2CO)n1)C(=O)N[C@H](CO)CC(C)C (single isomer, unassigned) [Example 28, N-[1-Ethyl-1-[[(1S)-1-(hydroxymethyl)-3-methyl-butyl]carbamoyl]propyl]-5-(3-fluoroazetidin-1-yl)-6-[[(1S,2S)-2-(hydroxymethyl)cyclopropyl]methoxy]pyridine-2-carboxamide or N-[1-ethyl-1-[[(1S)-1-(hydroxymethyl)-3-methyl-butyl]carbamoyl]propyl]-5-(3-fluoroazetidin-1-yl)-6-[[(1R,2R)-2-(hydroxymethyl)cyclopropyl]methoxy]pyridine-2-carboxamide] | 3940
8 | CCC(CC)(NC(=O)c1ccc(N2CC(OC)C2)c(OC[C@@H]2C[C@H]2CO)n1)C(=O)OCCF [Example 14, (−)-trans-2-Fluoroethyl 2-ethyl-2-{[6-{[-2-(hydroxymethyl)cyclopropyl]methoxy}-5-(3-methoxyazetidin-1-yl)pyridine-2-carbonyl]amino}butanoate] | 11.4
9 | CCC(CC)(NC(=O)c1ccc(N2CC(OC)C2)c(OC[C@H]2C[C@@H]2CO)n1)C(=O)OCCF (stereo in doubt) [Example 13, (+)-trans-2-Fluoroethyl 2-ethyl-2-{[6-{[-2-(hydroxymethyl)cyclopropyl]methoxy}-5-(3-methoxyazetidin-1-yl)pyridine-2-carbonyl]amino}butanoate] | 0.3
10 | CCC(CC)(NC(=O)c1ccc(N2CC(OC)C2)c(OC[C@@H]2C[C@H]2CO)n1)C(=O)OCCCF [Example 16, 3-Fluoropropyl 2-ethyl-2-{[6-{[(1R,2R)-2-(hydroxymethyl)cyclopropyl]methoxy}-5-(3-methoxyazetidin-1-yl)pyridine-2-carbonyl]amino}butanoate] | 18.8
11 | CCC(CC)(NC(=O)c1ccc(N2CC(OC)C2)c(OC[C@H]2C[C@@H]2COCc2ccccc2)n1)C(=O)OCCCF [Example 32, 3-Fluoropropyl 2-[[6-[[(1S,2S)-2-(benzyloxymethyl)cyclopropyl]methoxy]-5-(3-methoxyazetidin-1-yl)pyridine-2-carbonyl]amino]-2-ethyl-butanoate] | 246
12 | CC(C)C[C@@H](COCCF)NC(=O)c1ccc(N2CCCC2)c(OCC2COC2)n1 [Example 18, N-[(2S)-1-(2-Fluoroethoxy)-4-methylpentan-2-yl]-6-[(oxetan-3-yl)methoxy]-5-(pyrrolidin-1-yl)pyridine-2-carboxamide] | 21

Further lines, results first:

Row | Ki [nM] | SMILES
13 | 13 | CCOC(=O)C(CC)(CC)NC(=O)c1ccc(N2CC(OC)C2)c(OC[C@@H]2C[C@@H]2COCCF)n1 (mixture of isomers) [Example 6, Ethyl 2-ethyl-2-{[6-({(1R,2S)-2-[(2-fluoroethoxy)methyl]cyclopropyl}methoxy)-5-(3-methoxyazetidin-1-yl)pyridine-2-carbonyl]amino}butanoate and ethyl 2-ethyl-2-{[6-({(1S,2R)-2-[(2-fluoroethoxy)methyl]cyclopropyl}methoxy)-5-(3-methoxyazetidin-1-yl)pyridine-2-carbonyl]amino}butanoate]
14 | 0.5 | CCOC(=O)C(CC)(CC)NC(=O)c1ccc(N2CC(OC)C2)c(OC[C@H]2C[C@@H]2CF)n1 (mixture of isomers) [Example 3, Ethyl 2-ethyl-2-{[6-{[(1S,2S)-2-(fluoromethyl)cyclopropyl]methoxy}-5-(3-methoxyazetidin-1-yl)pyridine-2-carbonyl]amino}butanoate and ethyl 2-ethyl-2-{[6-{[(1R,R)-2-(fluoromethyl)cyclopropyl]methoxy}-5-(3-methoxyazetidin-1-yl)pyridine-2-carbonyl]amino}butanoate]
15 | 4.6 | CCOC(=O)C(CC)(CC)NC(=O)c1ccc(N2CC(OC)C2)c(OC[C@@H]2C[C@@H]2COCF)n1 (mixture of isomers) [Example 5, Ethyl 2-ethyl-2-{[6-({(1R,2S)-2-[(fluoromethoxy)methyl]cyclopropyl}methoxy)-5-(3-methoxyazetidin-1-yl)pyridine-2-carbonyl]amino}butanoate and ethyl 2-ethyl-2-{[6-({(1S,2R)-2-[(fluoromethoxy)methyl]cyclopropyl}methoxy)-5-(3-methoxyazetidin-1-yl)pyridine-2-carbonyl]amino}butanoate]
16 | 2.5 | CCOC(=O)C(CC)(CC)NC(=O)c1cc(F)c(N2CC(OC)C2)c(OCC2CC2)n1 [Example 7, Ethyl 2-{[6-(cyclopropylmethoxy)-4-fluoro-5-(3-methoxyazetidin-1-yl)pyridine-2-carbonyl]amino}-2-ethylbutanoate]
17 | 0.7 | CCOC(=O)C(CC)(CC)NC(=O)c1ccc(N2CC(OC)C2)c(OC[C@@H]2C[C@@H]2CF)n1 (mixture of isomers) [Example 4, Ethyl 2-ethyl-2-{[6-{[(1R,2S)-2-(fluoromethyl)cyclopropyl]methoxy}-5-(3-methoxyazetidin-1-yl)pyridine-2-carbonyl]amino}butanoate and ethyl 2-ethyl-2-{[6-{[(1S,2R)-2-(fluoromethyl)cyclopropyl]methoxy}-5-(3-methoxyazetidin-1-yl)pyridine-2-carbonyl]amino}butanoate]
18 | 0.2 | CCOC(=O)C(CC)(CC)NC(=O)c1ccc(N2CC(OC)C2)c(OC[C@H]2C[C@@H]2COCF)n1 (stereo in doubt) [Example 9, (+)-trans-Ethyl 2-ethyl-2-{[6-({-2-[(fluoromethoxy)methyl]cyclopropyl}methoxy)-5-(3-methoxyazetidin-1-yl)pyridine-2-carbonyl]amino}butanoate]
19 | 10.9 | CCC(CC)(NC(=O)c1ccc(N2CC(F)C2)c(OC[C@@H]2C[C@H]2CO)n1)C(=O)OCCCF (single isomer, unassigned) [Example 29, 3-Fluoropropyl 2-ethyl-2-{[5-(3-fluoroazetidin-1-yl)-6-{[(1R,2R)-2-(hydroxymethyl)cyclopropyl]methoxy}pyridin-2-yl]formamido}butanoate or 3-fluoropropyl 2-ethyl-2-{[5-(3-fluoroazetidin-1-yl)-6-{[(1S,2S)-2-(hydroxymethyl)cyclopropyl]methoxy}pyridin-2-yl]formamido}butanoate]
20 | 0.7 | CCC(CC)(NC(=O)c1ccc(N2CC(OC)C2)c(OC[C@H]2C[C@@H]2CO)n1)C(=O)OCCCF [Example 15, 3-Fluoropropyl 2-ethyl-2-{[6-{[(1S,2S)-2-(hydroxymethyl)cyclopropyl]methoxy}-5-(3-methoxyazetidin-1-yl)pyridine-2-carbonyl]amino}butanoate]
